Source: patent US11999806B2, “Broad-spectrum polypeptide against enterovirus and application thereof” (WUHAN INSTITUTE OF VIROLOGY, CHINESE ACADEMY OF SCIENCES, priority 2018, dated 2024)
Several values for one entry are separate records, joined by “and”; a condition that tells them apart may be missing. Identical values can stand only once.

System: EV71
Assay: Anti-EV71 efficiency in RD cells, viral RNA by qRT-PCR
Assay type: cell-based, enterovirus 71
Settings: 24 h, control infected without polypeptide
Description: • (1) RD cells were plated in five 100 mm dishes. • (2) After the cells reached 70%-80% confluence, the MEM medium containing 10% serum was replaced with a MEM medium containing 2% serum. […] When the changes were obvious, samples were collected as follows. • (4) The supernatant in the 100 mm dish was transferred into a 15 ml centrifuge tube, and centrifuged at 500 g for 5 min. • (5) The supernatant was transferred into a new 15 ml centrifuge tube, and filtered through 0.22 μm filter membrane with a 50 ml syringe. • (6) RNA was extracted from 100 μl of the supernatant obtained in step (5) and subjected to one step qRT-PCR to measure the virus titer, and the previously extracted virus RNA with known titer was handled together as a control. 3. Measure Antiviral Efficiency of Polypeptide in RD Cells. • (1) Different cells were plated in 24-well cell plates. • (2) After the cells reached 70%-80% confluence, the MEM medium containing 10% serum was replaced with a MEM medium containing 2% serum (0.5 ml/well), and 5 μl of 10^6 PFU/mL EV71 viruses per well were added. • (3) After 1 h, different polypeptides were added at a final concentration of 0.01 μM, 0.1 μM, 1 μM, 10 μM, and 50 μM, respectively. • (4) Samples were collected 24 hours after virus infection, and RNA was extracted with total RNA extraction kit as follows. • (5) The supernatant in the wells was discarded, then 350 μl of TRK Lysis Buffer was added to each well and the plate was shaken on the shaker for 5 minutes. • (6) 350 μl of 70% ethanol (DEPC-treated) was added to the well and the plate was shaken on the shaker for 5 minutes. • (7) The mixture in the well was transferred to a RNA extraction column and centrifuged at 12,000 g for 1 min. • (8) The solution collected in the recovery tube was added back to the column and centrifuged at 12,000 g for 1 min. • (9) RNA washing buffer 1 was added to the column and centrifuged at 12,000 g for 30 s. • (10) RNA washing buffer 2 was added to the column and centrifuged at 12,000 g for 1 min. • (11) Step (10) was repeated once. • (12) The column was centrifuged at 12000 g for 2 min to completely remove residual RNA washing buffer. • (13) 50 μl DEPC-treated H2O was added to the column and centrifuge at 12,000 g for 2 min. • (14) 2 μl RNA sample was used according to one step qRT-PCR kit for fluorescence quantification experiment.
RD cells added with R8 penetrating peptide (sequence: RRRRRRRR) were used as a negative control.
RD cells were used to test the antiviral effect of polypeptide P2. EV71 (MOI=0.1) was added to RD cells at 80% confluence. After 1 hour of infection, polypeptide P2 was added at concentrations of 0.01 μM, 0.1 μM, 1 μM, 10 μM, and 50 μM, respectively. The samples were collected 24 hours later, and the total RNA was extracted. The level of viral genomic RNA was detected by qRT-PCR. The cells infected with the same type virus and added with penetrating peptide R8 were used as a control group.
• (1) RD cells were plated in five 100 mm dishes. • (2) After the cells reached 70%-80% confluence, the MEM medium containing 10% serum was replaced with a MEM medium containing 2% serum. […] When the changes were obvious, samples were collected as follows. • (4) The supernatant in the 100 mm dish was transferred into a 15 ml centrifuge tube, and centrifuged at 500 g for 5 min. • (5) The supernatant was transferred into a new 15 ml centrifuge tube, and filtered through 0.22 μm filter membrane with a 50 ml syringe. • (6) RNA was extracted from 100 μl of the supernatant obtained in step (5) and subjected to one step qRT-PCR to measure the virus titer, and the previously extracted virus RNA with known titer was handled together as a control. 3. […]

Row | Compound | Relative viral RNA amount (%) (EV71 MOI=0.1, 0.01 μM) | Relative viral RNA amount (%) (EV71 MOI=0.1, 0.1 μM) | Relative viral RNA amount (%) (EV71 MOI=0.1, 1 μM) | Relative viral RNA amount (%) (EV71 MOI=0.1, 10 μM)
1 | CCCCCCCCCCCCCCCC(=O)NCCCC[C@H](NC(=O)CCNC(=O)[C@@H]1CCCN1C(=O)[C@@H](NC(=O)[C@@H](NC(=O)[C@H](Cc1c[nH]c2ccccc12)NC(=O)CNC(=O)[C@H](CCC(N)=O)NC(=O)[C@H](CCC(=O)O)NC(=O)[C@H](CCCNC(=N)N)NC(=O)[C@H](CS)NC(=O)[C@H](Cc1ccc(O)cc1)NC(=O)[C@H](CCC(N)=O)NC(=O)[C@H](CCCNC(=N)N)NC(=O)[C@@H](NC(=O)[C@H](CCC(=O)O)NC(=O)[C@@H](N)CCC(=O)O)C(C)C)[C@@H](C)CC)[C@@H](C)CC)C(=O)O [EP-PA] | 83.07% and 76.47% and 56.74% | 79.01% and 67.55% and 53.7% | 86.29% and 75.98% and 56.91% | 
2 | EP-CHOL: SEQ ID NO: 9, EEVRQYCREQGWIIP-AK-cholesterol (Chol) | 75.49% and 59.54% and 59.75% | 75.76% and 70.99% and 60.98% | 96.78% and 76.07% and 59.55% | 39.12% and 66.18% and 37.09%
